Reference: publication PMC9867837 (Cancer letters, 2022)
Read-outs that look alike come from different tables or passages of the source.

Columns and labels:
[1] = target: T1, pY705Stat3 (Homo sapiens, UniProt P40763); assay: Western blotting for pY705Stat3 in treated breast cancer cells; format: cell-based; conditions: for Effect on constitutive Stat3 Tyr phosphorylation (pYStat3) in cells: MDA-MB-468 and MDA-MB-231, 0–5 μM, 1 or 2 h
T1 construct: endogenous in cells
Method: These studies were performed as previously described. Details are presented in Supplementary Information, “Methods”.
Nuclear extracts and whole-cell lysates were prepared, and samples of equal total protein were subjected to Stat3 DNA-binding assay/EMSA analysis using the hSIE probe, or to SDS/PAGE and Western blotting analysis for pY705Stat3, Stat3, or GAPDH [11, 12]. […] Depending on the concentration (1, 3, or 5 μM), the inhibitory effects of the azetidine compounds were observed relatively early, at 30–60 min, on both Stat3 DNA-binding activity (Fig. 4C) and Tyr phosphorylation (Fig. 4D, pY705Stat3).
During confluence of cultured cells, the cell-to-cell adhesion and cadherin engagement trigger increased Tyr705Stat3 phosphorylation in a variety of cell lines. To investigate the impact of cell-to-cell adhesion and cadherin engagement, parallel studies were conducted in which cells in culture were untreated or treated with 1 or 2 μM H182 for 0.5–48 h, and whole-cell lysates prepared and immunoprobed for pTyr705Stat3. […] After 48-h incubation, the cell confluency of the DMSO-treated samples reached to around 60% for MDA-MB-468 cells and 80% for MDA-MB-231 cells. […] In the untreated cells, Stat3 (red punctate) staining was predominantly localized in the nucleus of the tumor cells, with weak presence in the cytoplasm (Fig. 4F, 0, Stat3, red merged with blue DAPI nuclear staining). […] Total Stat3 protein levels in all of these studies were unchanged, and GAPDH, tubulin or β-actin levels show equal protein loading. The percent changes induced by H182 treatment on Stat3 DNA-binding activity and phosphorylation in the treated cells are shown.
These studies were performed as previously described [1 -3] . Briefly, snap-frozen tumor tissues or cultured cells treated or not were harvested and whole-cell or tissue lysates were prepared in radioimmunoprecipitation assay (RIPA) buffer. Samples of equal total protein were subjected to SDS - PAGE and immunoblotting analysis. Primary antibodies used were anti- Stat3, pY705-Stat3, pS727Stat3, […]
Akt, pT202/Y204Erk1/2 (p44/42), Erk1/2, PARP , caspase 3, c-Myc, survivin, VEGF, β-actin, α/β-tubulin, and GAPDH. For the studies of the effects of cell density and confluence on pY705Stat3, cells were seeded […] in culture dishes. The next day, cells were untreated (DMSO control, […]
0.1%) or treated at the same time with 1 or 2 µM H182, allowed to incubate for the indicated time and then harvested for whole-cell lysate preparation and SDS -PAGE / immunoblotting analy sis. After 48-h incubation, the cell confluency of the DMSO-treated samples reached to around 60% for MDA-MB -468 cells and 80% for MDA- MB-231 cells. […]

[2] = system: MCF-10A cells; assay: CyQuant viable cell number assay, MCF-10A; format: cell-based, human; conditions: 72 h, read-out: IC50 viable cell numbers, MCF-10A
Method: CyQuant assay was performed to evaluate compounds as previously reported. Details are presented in Supplementary Information, “Methods”. […]
1.2.6. Cell viability assays
CyQuant assay was performed to evaluate compounds as previously reported [1 -3] . Briefly, cells (5 x 10^3 per well, 100 µl) in culture in 96-well plates were treated once with 0 -10 µM concentrations of H120, H105, […]
concentration of H182 for 6 h and then treated with 0- 100 nM docetaxel or 0-20 µM cisplatin for a total of 72 h. Viable cell numbers were assessed by a CyQuant cell proliferation kit according to the manufacturer’s instructions (Thermo/Life Technologies Corp, Carlsbad, CA). Viable cell numbers were normalized to that of DMSO (control)-treated samples. […]

T1 sequence (P40763 whole entry): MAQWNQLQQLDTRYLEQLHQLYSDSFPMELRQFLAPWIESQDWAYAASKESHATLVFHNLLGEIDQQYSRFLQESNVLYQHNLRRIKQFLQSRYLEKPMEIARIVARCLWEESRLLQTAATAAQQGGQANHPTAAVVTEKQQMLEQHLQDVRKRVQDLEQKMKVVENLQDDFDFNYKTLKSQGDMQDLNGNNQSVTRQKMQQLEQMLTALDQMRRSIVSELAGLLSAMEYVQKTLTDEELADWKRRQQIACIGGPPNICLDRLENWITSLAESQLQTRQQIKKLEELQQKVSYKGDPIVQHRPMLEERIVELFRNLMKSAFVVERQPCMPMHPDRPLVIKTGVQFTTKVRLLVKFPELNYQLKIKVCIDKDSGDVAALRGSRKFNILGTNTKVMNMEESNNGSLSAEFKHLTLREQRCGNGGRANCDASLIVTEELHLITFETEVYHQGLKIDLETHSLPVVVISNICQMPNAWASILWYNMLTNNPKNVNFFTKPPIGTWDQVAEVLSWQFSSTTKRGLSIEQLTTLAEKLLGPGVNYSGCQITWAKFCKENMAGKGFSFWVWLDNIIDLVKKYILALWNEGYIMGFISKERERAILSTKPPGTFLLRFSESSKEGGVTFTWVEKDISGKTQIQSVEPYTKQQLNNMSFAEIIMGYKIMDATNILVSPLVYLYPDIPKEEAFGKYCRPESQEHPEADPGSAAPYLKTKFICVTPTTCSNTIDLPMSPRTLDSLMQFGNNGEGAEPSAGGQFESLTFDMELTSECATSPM

Row | Compound | Duration of inhibition of Stat3 activation (pY705Stat3) ([1]; 3 μM H182) | Effect on constitutive Stat3 Tyr phosphorylation (pYStat3) in cells [1] | Effect on EGF-induced pY705Stat3 ([1]; MDA-MB-468 cells, 1–3 μM H182) | IC50 [2] [µM] | IC50 ([2]; Homo sapiens, MCF-10A) [µM]
1 | O=C([C@H]1CCN1S(=O)(=O)c1c(F)c(F)c(F)c(F)c1F)N(Cc1ccc(C2CCCCC2)cn1)c1ccc2c(=O)[nH]ncc2c1 [Compound H182] | sustained inhibition of Stat3 activation for up to 48 h | dose-dependent inhibition | inhibited EGF-induced pY705Stat3 in MDA-MB-468 cells in a dose-dependent manner | 3.8 | 3.8 to 4
2 | O=C([C@H]1CCN1S(=O)(=O)c1c(F)c(F)c(F)c(F)c1F)N(Cc1ccc(C2CCCCC2)cn1)c1ccc2c(=O)[nH]cnc2c1 [Compound H172] |  | dose-dependent inhibition |  | 4 | 3.8 to 4
